Assay results as given in patent US12692254B2, “Benzimidazole inhibitors of PAD enzymes” (BRISTOL-MYERS SQUIBB COMPANY, priority 2018, dated 2026).

These molecules were tested against human PAD4 (hPAD4) (Homo sapiens, UniProt Q9UM07) (assay: RFMS human PAD4 functional assay (rapid-fire mass spectrum)). Details: 5 nM hPAD4 enzyme, 250 μM BAEE, 50 μM Calcium; 30 min preincubation, 90 min reaction at 37° C.
Type: biochemical
Summary of the method: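 PAD4 (10 nM) preincubated 30 min with compound (top final 50 μM), then BAEE substrate added in pH 7.5 HEPES buffer with DTT, 50 μM calcium, TPEN; 90 min at 37° C. After TCA quench, citrulline derivatized with phenyl glyoxal (4 mM final, 30 min, 37° C) and quantified by RapidFire MS against internal standard.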

human PAD4 (hPAD4), sequence (Q9UM07 whole entry): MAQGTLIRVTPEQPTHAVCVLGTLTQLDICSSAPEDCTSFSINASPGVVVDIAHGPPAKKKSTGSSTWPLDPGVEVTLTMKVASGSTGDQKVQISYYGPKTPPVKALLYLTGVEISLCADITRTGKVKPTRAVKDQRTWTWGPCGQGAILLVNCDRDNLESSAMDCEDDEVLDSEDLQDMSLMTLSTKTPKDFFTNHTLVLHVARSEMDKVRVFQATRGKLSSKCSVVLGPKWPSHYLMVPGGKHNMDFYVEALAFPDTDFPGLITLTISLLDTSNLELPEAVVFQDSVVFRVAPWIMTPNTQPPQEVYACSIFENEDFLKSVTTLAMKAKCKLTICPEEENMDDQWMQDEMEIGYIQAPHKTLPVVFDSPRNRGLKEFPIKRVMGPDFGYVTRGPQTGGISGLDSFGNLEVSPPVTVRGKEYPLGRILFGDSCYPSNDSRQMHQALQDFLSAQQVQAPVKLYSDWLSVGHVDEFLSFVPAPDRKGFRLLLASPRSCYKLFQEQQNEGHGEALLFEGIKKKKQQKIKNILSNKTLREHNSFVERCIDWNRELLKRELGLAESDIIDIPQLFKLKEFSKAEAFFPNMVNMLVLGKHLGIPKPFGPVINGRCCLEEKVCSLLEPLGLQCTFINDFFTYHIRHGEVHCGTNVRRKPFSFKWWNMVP

IC50 | SMILES
638 nM | COc1cc(C(=O)N2C[C@H]3CC[C@@H]2[C@@H]3N)cc2nc(-c3cc4cccnc4n3CC3CC3)n(CC3CN(c4ccccc4C(C)=O)C3)c12 [Example 85, 1-{2-[3-({5-[(1R,4R,7R)-7-amino-2-azabicyclo[2.2.1]heptane-2-carbonyl]-2-[1-(cyclopropylmethyl)-1H-pyrrolo[2,3-b]pyridin-2-yl]-7-methoxy-1H-1,3-benzodiazol-1-yl}methyl)azetidin-1-yl]phenyl}ethan-1-one]
1680 nM | COc1cc(C(=O)N2C[C@H]3CC[C@@H]2[C@@H]3N)cc2nc(-c3cc4cccnc4n3CC3CC3)n(C3CN(c4ccncn4)C3)c12 [Example 86, (1R,4R,7R)-2-{2-[1-(cyclopropylmethyl)-1H-pyrrolo[2,3-b]pyridin-2-yl]-7-methoxy-1-[1-(pyrimidin-4-yl)azetidin-3-yl]-1H-1,3-benzodiazole-5-carbonyl}-2-azabicyclo[2.2.1]heptan-7-amine]
2280 nM | COc1cc(C(=O)N2C[C@H]3CC[C@@H]2[C@@H]3N)cc2nc(-c3cc4ccc(Cl)cc4n3CC3CC3)n(CC3CN(c4cncc(C#N)c4)C3)c12 [Example 87, 5-[3-({5-[(1R,4R,7R)-7-amino-2-azabicyclo[2.2.1]heptane-2-carbonyl]-2-[6-chloro-1-(cyclopropylmethyl)-1H-indol-2-yl]-7-methoxy-1H-1,3-benzodiazol-1-yl}methyl)azetidin-1-yl]pyridine-3-carbonitrile]
21 nM | COc1cc(C(=O)N2C[C@H]3CC[C@@H]2[C@@H]3N)cc2nc(-c3cc4cccnc4n3CC3CC3)n(CC3CN(C(=O)c4ccccc4)C3)c12 [Example 88, (1R,4R,7R)-2-{1-[(1-benzoylazetidin-3-yl)methyl]-2-[1-(cyclopropylmethyl)-1H-pyrrolo[2,3-b]pyridin-2-yl]-7-methoxy-1H-1,3-benzodiazole-5-carbonyl}-2-azabicyclo[2.2.1]heptan-7-amine]
41 nM | N[C@@H]1[C@@H]2CC[C@H]1N(C(=O)c1cc(Cl)c3c(c1)nc(-c1cc4cccnc4n1CC1CC1)n3CC1CN(C(=O)c3ccccc3)C1)C2 [Example 89, (3-((5-((1R,4R,7R)-7-amino-2-azabicyclo[2.2.1]heptane-2-carbonyl)-7-chloro-2-(1-(cyclopropylmethyl)-1H-pyrrolo[2,3-b]pyridin-2-yl)-1H-benzo[d]imidazol-1-yl)methyl)azetidin-1-yl)(phenyl)methanone]
28 nM | COc1cc(C(=O)N2C[C@H](N)C[C@@H](F)C2)cc2nc(-c3cc4ccccc4n3CC3CC3)n(CC3CN(C(=O)c4ccc(C#N)cc4)C3)c12 [Example 90, 4-[3-({5-[(3R,5R)-3-amino-5-fluoropiperidine-1-carbonyl]-2-[1-(cyclopropylmethyl)-1H-indol-2-yl]-7-methoxy-1H-1,3-benzodiazol-1-yl}methyl)azetidine-1-carbonyl]benzonitrile]
9 nM | COc1cc(C(=O)N2C[C@H]3CC[C@@H]2[C@@H]3N)cc2nc(-c3cc4ccccc4n3CC3CC3)n(CC3CN(C(=O)c4ccc(C#N)cc4)C3)c12 [Example 91, 4-[3-({5-[(1R,4R,7R)-7-amino-2-azabicyclo[2.2.1]heptane-2-carbonyl]-2-[1-(cyclopropylmethyl)-1H-indol-2-yl]-7-methoxy-1H-1,3-benzodiazol-1-yl}methyl)azetidine-1-carbonyl]benzonitrile]
12 nM | N#Cc1ccc(C(=O)N2CC(Cn3c(-c4cc5ccccc5n4CC4CC4)nc4cc(C(=O)N5C[C@H]6CC[C@@H]5[C@@H]6N)cc(F)c43)C2)cc1 [Example 92, 4-(3-((5-((1R,4R,7R)-7-amino-2-azabicyclo[2.2.1]heptane-2-carbonyl)-2-(1-(cyclopropylmethyl)-1H-indol-2-yl)-7-fluoro-1H-benzo[d]imidazol-1-yl)methyl)azetidine-1-carbonyl)benzonitrile]
16 nM | N[C@@H]1[C@@H]2CC[C@H]1N(C(=O)c1cc(Cl)c3c(c1)nc(-c1cc4ccccc4n1CC1CC1)n3CC1CN(C(=O)c3ccncc3)C1)C2 [Example 93, (3-((5-((1R,4R,7R)-7-amino-2-azabicyclo[2.2.1]heptane-2-carbonyl)-7-chloro-2-(1-(cyclopropylmethyl)-1H-indol-2-yl)-1H-benzo[d]imidazol-1-yl)methyl)azetidin-1-yl)(pyridin-4-yl)methanone]
34 nM | COc1cc(C(=O)N2C[C@H]3CC[C@@H]2[C@@H]3N)cc2nc(-c3cc4cccnc4n3CC3CC3)n(C3CN(C(=O)c4ccnc(Cl)n4)C3)c12 [Example 94, (1R,4R,7R)-2-{1-[1-(2-chloropyrimidine-4-carbonyl)azetidin-3-yl]-2-[1-(cyclopropylmethyl)-1H-pyrrolo[2,3-b]pyridin-2-yl]-7-methoxy-1H-1,3-benzodiazole-5-carbonyl}-2-azabicyclo[2.2.1]heptan-7-amine]
16 nM | N[C@@H]1[C@@H]2CC[C@H]1N(C(=O)c1cc(F)c3c(c1)nc(-c1cc4ccccc4n1CC1CC1)n3CC1CN(C(=O)c3ccncc3)C1)C2 [Example 95, (1R,4R,7R)-2-{2-[1-(cyclopropylmethyl)-1H-indol-2-yl]-7-fluoro-1-{[1-(pyridine-4-carbonyl)azetidin-3-yl]methyl}-1H-1,3-benzodiazole-5-carbonyl}-2-azabicyclo[2.2.1]heptan-7-amine]
83 nM | N#Cc1ccc(C(=O)N2CC(Cn3c(-c4cc5cccnc5n4CC4CC4)nc4cc(C(=O)N5C[C@H]6CC[C@@H]5[C@@H]6N)cc(Cl)c43)C2)cc1 [Example 96, 4-[3-({5-[(1R,4R,7R)-7-amino-2-azabicyclo[2.2.1]heptane-2-carbonyl]-7-chloro-2-[1-(cyclopropylmethyl)-1H-pyrrolo[2,3-b]pyridin-2-yl]-1H-1,3-benzodiazol-1-yl}methyl)azetidine-1-carbonyl]benzonitrile]
63 nM | COc1cc(C(=O)N2C[C@H]3CC[C@@H]2[C@@H]3N)cc2nc(-c3cc4cccnc4n3CC3CC3)n(C3CN(C(=O)c4ccnc(C)n4)C3)c12 [Example 97, (1R,4R,7R)-2-{2-[1-(cyclopropylmethyl)-1H-pyrrolo[2,3-b]pyridin-2-yl]-7-methoxy-1-[1-(2-methylpyrimidine-4-carbonyl)azetidin-3-yl]-1H-1,3-benzodiazole-5-carbonyl}-2-azabicyclo[2.2.1]heptan-7-amine]
71 nM | COc1cc(C(=O)N2C[C@H]3CC[C@@H]2[C@@H]3N)cc2nc(-c3cc4cccnc4n3CC3CC3)n(C3CN(C(=O)c4ccnc(Cl)c4)C3)c12 [Example 98, (1R,4R,7R)-2-{1-[1-(2-chloropyridine-4-carbonyl)azetidin-3-yl]-2-[1-(cyclopropylmethyl)-1H-pyrrolo[2,3-b]pyridin-2-yl]-7-methoxy-1H-1,3-benzodiazole-5-carbonyl}-2-azabicyclo[2.2.1]heptan-7-amine]
111 nM | COc1cc(C(=O)N2C[C@H]3CC[C@@H]2[C@@H]3N)cc2nc(-c3cc4cccnc4n3CC3CC3)n(C3CN(C(=O)c4ccc(Cl)nc4)C3)c12 [Example 99, (1R,4R,7R)-2-{1-[1-(6-chloropyridine-3-carbonyl)azetidin-3-yl]-2-[1-(cyclopropylmethyl)-1H-pyrrolo[2,3-b]pyridin-2-yl]-7-methoxy-1H-1,3-benzodiazole-5-carbonyl}-2-azabicyclo[2.2.1]heptan-7-amine]
117 nM | COc1cc(C(=O)N2C[C@H]3CC[C@@H]2[C@@H]3N)cc2nc(-c3cc4cccnc4n3CC3CC3)n(C3CN(C(=O)c4ccncn4)C3)c12 [Example 100, (1R,4R,7R)-2-{2-[1-(cyclopropylmethyl)-1H-pyrrolo[2,3-b]pyridin-2-yl]-7-methoxy-1-[1-(pyrimidine-4-carbonyl)azetidin-3-yl]-1H-1,3-benzodiazole-5-carbonyl}-2-azabicyclo[2.2.1]heptan-7-amine]
125 nM | COc1cc(C(=O)N2C[C@H]3CC[C@@H]2[C@@H]3N)cc2nc(-c3cc4cccnc4n3CC3CC3)n(C3CN(C(=O)c4ccnc(N)n4)C3)c12 [Example 101, (1R,4R,7R)-2-{1-[1-(2-aminopyrimidine-4-carbonyl)azetidin-3-yl]-2-[1-(cyclopropylmethyl)-1H-pyrrolo[2,3-b]pyridin-2-yl]-7-methoxy-1H-1,3-benzodiazole-5-carbonyl}-2-azabicyclo[2.2.1]heptan-7-amine]
141 nM | COc1cc(C(=O)N2C[C@H]3CC[C@@H]2[C@@H]3N)cc2nc(-c3cc4cccnc4n3CC3CC3)n(C3CN(C(=O)c4cnc(C#N)nc4)C3)c12 [Example 102, 5-(3-{5-[(1R,4R,7R)-7-amino-2-azabicyclo[2.2.1]heptane-2-carbonyl]-2-[1-(cyclopropylmethyl)-1H-pyrrolo[2,3-b]pyridin-2-yl]-7-methoxy-1H-1,3-benzodiazol-1-yl}azetidine-1-carbonyl)pyrimidine-2-carbonitrile]
14 nM | COc1cc(C(=O)N2CC3CCC2[C@@H]3N)cc2nc(-c3cc4cccnc4n3CC3CC3)n(CC3CN(C(=O)[C@H]4C[C@@H]4c4ccccc4)C3)c12 (stereo partly drawn) [Example 103, (1R,4R,7R)-2-{2-[1-(cyclopropylmethyl)-1H-pyrrolo[2,3-b]pyridin-2-yl]-7-methoxy-1-({1-[(1S,2S)-2-phenylcyclopropanecarbonyl]aze-tidin-3-yl}-methyl)-1H-1,3-benzodiazole-5-carbonyl}-2-azabicyclo[2.2.1]heptan-7-amine]
27 nM | CC#CC(=O)N1CC(Cn2c(-c3cc4cccnc4n3CC3CC3)nc3cc(C(=O)N4C[C@H]5CC[C@@H]4[C@@H]5N)cc(OC)c32)C1 [Example 104, 1-[3-({5-[(1R,4R,7R)-7-amino-2-azabicyclo[2.2.1]heptane-2-carbonyl]-2-[1-(cyclopropylmethyl)-1H-pyrrolo[2,3-b]pyridin-2-yl]-7-methoxy-1H-1,3-benzodiazol-1-yl}methyl)azetidin-1-yl]but-2-yn-1-one]
